Experimental data reported in the NIST ThermoML archive (doi:10.1016/j.jct.2016.08.027).
Numbers after ± are expanded uncertainties.

Details: Liquid, Vibrating tube method

CCCCCCCCCCCC(=O)OCC [ethyl dodecanoate]
mass density [kg/m3]
Details | 283.15 K | 293.15 K | 303.15 K | 313.15 K | 323.15 K | 333.15 K | 343.15 K | 353.15 K | 363.15 K
100 kPa | 869.69 ± 0.9 | 862.5 ± 0.89 | 854.28 ± 0.88 | 846.91 ± 0.87 | 838.9 ± 0.87 | 831.05 ± 0.86 | 823.11 ± 0.85 | 815.47 ± 0.84 | 807.52 ± 0.84
1000 kPa | 870.36 ± 0.9 | 863 ± 0.89 | 855.02 ± 0.88 | 847.32 ± 0.88 | 839.64 ± 0.87 | 831.72 ± 0.86 | 824.13 ± 0.85 | 816.33 ± 0.85 | 808.53 ± 0.84
3000 kPa | 871.92 ± 0.9 | 864.24 ± 0.89 | 856.39 ± 0.89 | 848.68 ± 0.88 | 841.1 ± 0.87 | 833.53 ± 0.87 | 825.84 ± 0.86 | 818.26 ± 0.85 | 810.45 ± 0.84
5000 kPa | 872.91 ± 0.9 | 865.2 ± 0.9 | 857.69 ± 0.89 | 850.07 ± 0.88 | 842.59 ± 0.88 | 835.15 ± 0.87 | 827.55 ± 0.86 | 819.99 ± 0.86 | 812.32 ± 0.85
10000 kPa | 876.08 ± 0.91 | 868.58 ± 0.91 | 860.98 ± 0.9 | 853.51 ± 0.89 | 846.29 ± 0.89 | 838.84 ± 0.88 | 831.53 ± 0.88 | 824.24 ± 0.87 | 816.46 ± 0.86
15000 kPa | 878.96 ± 0.92 | 871.64 ± 0.92 | 864.33 ± 0.91 | 856.86 ± 0.9 | 849.77 ± 0.9 | 842.47 ± 0.89 | 835.33 ± 0.89 | 828.35 ± 0.88 | 821.01 ± 0.88
20000 kPa | 881.89 ± 0.93 | 874.58 ± 0.92 | 867.23 ± 0.92 | 860.1 ± 0.91 | 853.3 ± 0.91 | 846.07 ± 0.91 | 839.18 ± 0.9 | 832.01 ± 0.9 | 824.82 ± 0.89
25000 kPa | 884.58 ± 0.94 | 877.55 ± 0.93 | 870.25 ± 0.93 | 863.29 ± 0.93 | 856.35 ± 0.92 | 849.47 ± 0.92 | 842.57 ± 0.91 | 835.81 ± 0.91 | 828.56 ± 0.91
30000 kPa | 887.29 ± 0.95 | 880.26 ± 0.94 | 873.21 ± 0.94 | 866.24 ± 0.94 | 859.5 ± 0.93 | 852.73 ± 0.93 | 846.08 ± 0.93 | 839.36 ± 0.92 | 832.36 ± 0.92
35000 kPa | 890.05 ± 0.96 | 882.89 ± 0.95 | 876.08 ± 0.95 | 869.1 ± 0.95 | 862.45 ± 0.94 | 855.75 ± 0.94 | 849.44 ± 0.94 | 842.72 ± 0.94 | 835.98 ± 0.93
40000 kPa | 892.47 ± 0.96 | 885.52 ± 0.96 | 878.71 ± 0.96 | 871.83 ± 0.96 | 865.48 ± 0.95 | 859.06 ± 0.95 | 852.46 ± 0.95 | 846.01 ± 0.95 | 839.55 ± 0.95
50000 kPa | 897.22 ± 0.98 | 890.85 ± 0.98 | 883.88 ± 0.98 | 877.43 ± 0.98 | 871.16 ± 0.98 | 864.9 ± 0.98 | 858.61 ± 0.98 | 852.29 ± 0.98 | 845.99 ± 0.98
60000 kPa | 901.93 ± 0.99 | 895.29 ± 0.99 | 888.85 ± 0.99 | 882.35 ± 1 | 876.11 ± 1 | 870.44 ± 1 | 864.08 ± 1 | 858.27 ± 1 | 852.14 ± 1

CCCCCCCCCCCC(=O)OC [methyl dodecanoate]
mass density [kg/m3]
Details | 283.15 K | 293.15 K | 303.15 K | 313.15 K | 323.15 K | 333.15 K | 343.15 K | 353.15 K | 363.15 K
100 kPa | 876.58 ± 0.9 | 869.3 ± 0.9 | 860.98 ± 0.89 | 853.31 ± 0.88 | 845.42 ± 0.87 | 837.89 ± 0.87 | 829.64 ± 0.86 | 821.96 ± 0.85 | 813.95 ± 0.84
1000 kPa | 877.29 ± 0.9 | 869.79 ± 0.9 | 861.67 ± 0.89 | 853.78 ± 0.88 | 846.17 ± 0.87 | 838.44 ± 0.87 | 830.6 ± 0.86 | 822.7 ± 0.85 | 814.97 ± 0.85
3000 kPa | 879.12 ± 0.91 | 871.19 ± 0.9 | 863.19 ± 0.89 | 855.32 ± 0.89 | 847.65 ± 0.88 | 840.13 ± 0.87 | 832.28 ± 0.86 | 824.65 ± 0.86 | 816.88 ± 0.85
5000 kPa | 880.29 ± 0.91 | 872.09 ± 0.9 | 864.57 ± 0.9 | 856.78 ± 0.89 | 849.19 ± 0.88 | 841.69 ± 0.88 | 834.04 ± 0.87 | 826.36 ± 0.86 | 818.64 ± 0.86
10000 kPa | 883.41 ± 0.92 | 875.46 ± 0.91 | 867.78 ± 0.91 | 860.3 ± 0.9 | 852.91 ± 0.89 | 845.49 ± 0.89 | 837.93 ± 0.88 | 830.59 ± 0.88 | 822.93 ± 0.87
15000 kPa | 886.29 ± 0.93 | 878.42 ± 0.92 | 871.1 ± 0.92 | 863.63 ± 0.91 | 856.38 ± 0.9 | 849.14 ± 0.9 | 841.71 ± 0.89 | 834.55 ± 0.89 | 827.44 ± 0.88
20000 kPa | 889.1 ± 0.94 | 881.47 ± 0.93 | 874.06 ± 0.92 | 866.74 ± 0.92 | 859.88 ± 0.91 | 852.7 ± 0.91 | 845.7 ± 0.91 | 838.32 ± 0.9 | 831.22 ± 0.9
25000 kPa | 891.75 ± 0.94 | 884.32 ± 0.94 | 876.92 ± 0.93 | 870.04 ± 0.93 | 863.01 ± 0.93 | 856.12 ± 0.92 | 848.98 ± 0.92 | 842.04 ± 0.91 | 834.95 ± 0.91
30000 kPa | 894.31 ± 0.95 | 887.1 ± 0.95 | 879.85 ± 0.94 | 872.94 ± 0.94 | 866.2 ± 0.94 | 859.27 ± 0.93 | 852.48 ± 0.93 | 845.62 ± 0.93 | 838.64 ± 0.92
35000 kPa | 896.95 ± 0.96 | 889.69 ± 0.96 | 882.66 ± 0.95 | 875.68 ± 0.95 | 869.19 ± 0.95 | 862.4 ± 0.94 | 855.72 ± 0.94 | 849.06 ± 0.94 | 842.26 ± 0.94
40000 kPa | 899.33 ± 0.97 | 892.27 ± 0.96 | 885.34 ± 0.96 | 878.33 ± 0.96 | 872.15 ± 0.96 | 865.66 ± 0.95 | 858.94 ± 0.95 | 853.14 ± 0.95 | 845.87 ± 0.95
50000 kPa | 904.05 ± 0.98 | 897.52 ± 0.98 | 890.6 ± 0.98 | 883.95 ± 0.98 | 877.67 ± 0.98 | 871.36 ± 0.98 | 864.79 ± 0.98 | 858.49 ± 0.98 | 852.24 ± 0.98
60000 kPa | 909.85 ± 0.99 | 901.95 ± 0.99 | 895.49 ± 0.99 | 888.91 ± 0.99 | 883.06 ± 1 | 876.77 ± 1 | 870.31 ± 1 | 864.35 ± 1 | 858.43 ± 1
